The values below come from ChEMBL document CHEMBL6121046, “Discovery of Novel Hydrazide-Based HDAC3 Inhibitors as Epigenetic Immunomodulators for Cancer Immunotherapy” (J Med Chem, 2025).

Molecules are shown by their SMILES. The source made the active and inactive calls. No cut-off for these calls is given here.

In data set [1] the test system is MC-38. Kind of data set: Induction of apoptosis in mouse MC38 cells assessed as late apoptotic cells at 1 uM measured after 48 hrs by FITC/PI staining based flow cytometry (reference value: 5.07%). In kind it is functional. In general terms: A flow cytometer gives signals particle by particle.
For data set [2], the target named is T1, Protein deacetylase HDAC6 (Homo sapiens, UniProt Q9UBN7).
T1 sequence (Q9UBN7 whole entry): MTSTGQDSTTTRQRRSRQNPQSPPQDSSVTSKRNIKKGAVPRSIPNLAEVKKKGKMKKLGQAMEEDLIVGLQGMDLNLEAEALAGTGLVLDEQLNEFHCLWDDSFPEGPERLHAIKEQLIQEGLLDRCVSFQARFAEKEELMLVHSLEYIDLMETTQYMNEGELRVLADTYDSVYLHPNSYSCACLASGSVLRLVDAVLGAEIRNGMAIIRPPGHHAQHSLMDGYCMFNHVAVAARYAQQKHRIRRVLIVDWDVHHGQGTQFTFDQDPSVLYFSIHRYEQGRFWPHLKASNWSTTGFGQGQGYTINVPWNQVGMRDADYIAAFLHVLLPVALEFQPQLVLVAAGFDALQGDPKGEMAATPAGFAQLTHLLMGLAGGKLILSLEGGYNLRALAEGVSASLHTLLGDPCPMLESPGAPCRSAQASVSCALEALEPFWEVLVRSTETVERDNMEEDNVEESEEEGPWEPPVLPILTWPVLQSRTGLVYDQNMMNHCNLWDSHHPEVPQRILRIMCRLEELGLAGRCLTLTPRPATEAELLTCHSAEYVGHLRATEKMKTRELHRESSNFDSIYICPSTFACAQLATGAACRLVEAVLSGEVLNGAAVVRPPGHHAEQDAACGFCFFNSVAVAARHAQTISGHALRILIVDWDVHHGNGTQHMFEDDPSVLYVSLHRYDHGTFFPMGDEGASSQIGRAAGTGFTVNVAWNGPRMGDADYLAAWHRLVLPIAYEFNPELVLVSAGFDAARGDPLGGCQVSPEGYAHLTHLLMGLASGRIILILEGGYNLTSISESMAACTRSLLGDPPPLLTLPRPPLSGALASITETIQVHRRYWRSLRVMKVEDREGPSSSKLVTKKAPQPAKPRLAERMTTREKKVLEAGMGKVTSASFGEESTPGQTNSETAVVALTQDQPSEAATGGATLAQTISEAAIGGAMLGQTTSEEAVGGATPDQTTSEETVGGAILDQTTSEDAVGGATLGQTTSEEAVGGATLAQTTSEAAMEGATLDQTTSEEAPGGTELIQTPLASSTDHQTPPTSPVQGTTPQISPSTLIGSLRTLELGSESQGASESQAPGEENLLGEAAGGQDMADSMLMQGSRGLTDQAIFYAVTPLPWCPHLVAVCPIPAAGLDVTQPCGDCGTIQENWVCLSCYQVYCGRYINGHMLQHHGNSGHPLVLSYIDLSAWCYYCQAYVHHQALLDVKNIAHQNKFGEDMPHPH
Kind of data set: Inhibition of human recombinant HDAC6 pre-incubated with compounds for 10 mins measured followed by 60 mins of substrate addition.

The test system of data set [3] is MC-38. The data set can be described thus: Induction of apoptosis in mouse MC38 cells assessed as late apoptotic cells at 4 uM measured after 48 hrs by FITC/PI staining based flow cytometry (reference value: 5.07%). In kind it is functional.
Data set [4] relates to MC-38. The data set can be described thus: Induction of apoptosis in mouse MC38 cells assessed as viable cells at 1 uM measured after 48 hrs by FITC/PI staining based flow cytometry (reference value: 82.07%). It is filed as functional. As to conditions: read-out: Activity.
In the next data set the target is T2, Histone deacetylase 8 (Homo sapiens, UniProt Q9BY41).
T2 sequence (Q9BY41 whole entry): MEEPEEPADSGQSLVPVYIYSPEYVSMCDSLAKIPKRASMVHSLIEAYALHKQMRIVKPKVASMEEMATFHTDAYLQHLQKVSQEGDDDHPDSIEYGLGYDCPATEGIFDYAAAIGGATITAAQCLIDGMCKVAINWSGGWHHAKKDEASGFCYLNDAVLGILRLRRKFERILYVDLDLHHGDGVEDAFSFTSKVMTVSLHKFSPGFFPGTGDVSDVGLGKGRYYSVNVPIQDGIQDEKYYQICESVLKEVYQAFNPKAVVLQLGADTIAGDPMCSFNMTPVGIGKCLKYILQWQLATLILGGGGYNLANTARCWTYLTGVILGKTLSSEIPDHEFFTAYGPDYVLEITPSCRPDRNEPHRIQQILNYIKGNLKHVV
The data set can be described thus: Inhibition of human recombinant HDAC8 pre-incubated with compounds for 10 mins measured followed by 60 mins of substrate addition.

Data set [5] has as its system MC-38. The data set can be described thus: Induction of apoptosis in mouse MC38 cells assessed as necrotic cells at 1 uM measured after 48 hrs by FITC/PI staining based flow cytometry (reference value: 0.56%). It is filed as functional.
The next data set has as its system HCT-116. The data set can be described thus: Antiproliferative activity against human HCT-116 cells measured after 48 hrs incubation by MTT assay relative to control. It is filed as functional, cell-based. As to conditions: HCT-116, 48 h. (Formazan colour is commonly taken as a measure of viable cells.)
The test system of the next data set is HeLa. Kind of data set: Antiproliferative activity against human HeLa cells measured after 48 hrs incubation by MTT assay relative to control. It is filed as functional, cell-based.
In a further data set the test system is HepG2. Kind of data set: Antiproliferative activity against human HepG2 cells measured after 48 hrs incubation by MTT assay relative to control. In kind it is functional, cell-based. As to conditions: HepG2, 48 h.
The subject of data set [6] is MC-38. The data set can be described thus: Induction of apoptosis in mouse MC38 cells assessed as necrotic cells at 2 uM measured after 48 hrs by FITC/PI staining based flow cytometry (reference value: 0.56%). It is filed as functional.
Data set [7] has as its system MC-38. The data set can be described thus: In vivo antitumor activity against mouse MC38 cells allografted in C57BL/6 mouse assessed as apoptosis in tumor in presence of NP19 PD-L1 inhibitor at 50 mg/kg, po treated 5 days after cell inoculation 19 th day relative to control. It is filed as functional, organism-based. As to conditions: time 15.0 day.
Data set [8] can be described thus: MRT (0 to infinity) in Sprague-Dawley rat at 20 mg/kg, po measured upto 12 hrs by LC-MS/MS analysis. In kind it is ADME, organism-based. As to conditions: in vivo.
A short description of data set [9]: Oral bioavailability in Sprague-Dawley rat at 20 mg/kg measured upto 12 hrs by LC-MS/MS analysis. It is filed as ADME, organism-based. As to conditions: in vivo.
Data set [10] deals with MC-38. Kind of data set: Induction of mitochondrial membrane damage in mouse MC38 cells assessed as decrease in JC-1 aggregation by measuring red fluorescence at 4 uM measured after 48 hrs (reference value: 96.70%). Details: scale not given: the % may be the effect or the level left. It is filed as functional.
The subject of data set [11] is MC-38. Kind of data set: Induction of mitochondrial membrane damage in mouse MC38 cells assessed as increase in JC-1 monomers by measuring green fluorescence at 4 uM measured after 48 hrs (reference value: 3.13%). It is filed as functional.
Data set [12] can be described thus: Toxicity in C57BL/6 mouse allografted with mouse MC38 cells assessed as urea nitrogen (BUN) level in serum at 50 mg/kg, po treated 5 days after cell inoculation 19 th day. It is filed as organism-based. As to conditions: in vivo, 360 h, time 15 day.
In another data set the test system is Mus musculus. The data set can be described thus: Immunomodulatory effect in C57BL/6 mouse allografted mouse MC38 cells assessed as increase in tumor infiltrating lymphocytes by measuring increase in CD4+ T helper cells in mouse spleen in presence of NP19 PD-L1 inhibitor at 50 mg/kg, po treated 5 days after cell inoculation 19 th day by flow cytometry analysis (reference value: 10.8%). In kind it is functional. As to conditions: time 15 day.

Data set [13] can be described thus: Toxicity in C57BL/6 mouse allografted with mouse MC38 cells assessed as pathological changes in liver at 50 mg/kg, po treated 5 days after cell inoculation 19 th day by hematoxylin and eosin analysis. In kind it is organism-based. As to conditions: in vivo, 360 h, time 15 day.

What is called IC50 is the concentration that inhibits the measured activity by half. For `CCCNNC(=O)c1ccc(CNC(=O)c2cnc(-c3cccc4ccccc34)[nH]2)cc1`, the Activity in the data set on MC-38 [1] is listed as 30.57%; in the data set with MC-38 [3] it was 26.83%; in the data set on MC-38 [5], 2.9%; in the data set on MC-38 [6], 9.01%. For the same molecule, the IC50 in data set [2] is 9680 nM; on Histone deacetylase 8 it was greater than 10000 nM; in the data set on HCT-116, 230 nM; with HeLa, 1310 nM; in the data set with HepG2, 370 nM. Besides, the viability at 1 µM with MC-38 [4] is 50.7%.

As a reminder, the MRT inf is the average time that molecules of a dose stay in the body. Take `CCCNNC(=O)c1ccc(CNC(=O)c2cnc(-c3ccc4occc4c3)[nH]2)cc1`: the Activity in the data set with MC-38 [1] was 35%; with MC-38 [3] it was 54.95%; with MC-38 [10], 72.13%; in the data set on MC-38 [11], 27.53%; with MC-38 [5], 3.72%; in the data set on MC-38 [6], 2.15%. In addition, the figures for the Activity result (in data set [12]; in the data set on Mus musculus; in data set [13]) were “Non-toxic”, 11.9% and “Non-toxic”, respectively. The IC50 in data set [2] is greater than 10000 nM; on Histone deacetylase 8, greater than 10000 nM; in the data set on HCT-116, 100 nM; with HeLa it was 2240 nM; in the data set with HepG2, 330 nM. Further, the outcome in the data set on MC-38 [7] was Active. Moreover, the MRT inf in data set [8] is 4.33 h. For the same molecule, the viability at 1 µM in the data set with MC-38 [4] was found to be 49.3%. In addition, the F in data set [9] came out at 11.5%.
